Results reported in ChEMBL document CHEMBL1144158, “Synthesis and biological properties of 2-methylene-19-nor-25-dehydro-1alpha-hydroxyvitamin D(3)-26,23-lactones--weak agonists” (Bioorg Med Chem, 2008).
Active and inactive are the calls of the source. No cut-off for these calls is given here.

Legend:
Rattus norvegicus [1] = assay: Effect on bone calcium mobilization in vitamin D-deficient Sprague-Dawley rat assessed as serum calcium level at 320 pmol, ip administered 4 consecutive daily doses assessed after 24 hrs of last dose by spectrometry; type: functional
Rattus norvegicus [2] = assay: Effect on calcium transport in vitamin D-deficient Sprague-Dawley rat intestine assessed as ratio of serosal to mucosal calcium level at 960 pmol, ip administered 4 consecutive daily doses assessed after 24 hrs of last dose by gut sac assay; type: functional
Vitamin D3 receptor [3] = target: T1, Vitamin D3 receptor (Rattus norvegicus, UniProt P13053); assay: Activity at rat recombinant full length VDR expressed in rat ROS 17/2.8 cells transfected with 24-hydroxylase gene promoter assessed as transcriptional activation after 16 hrs by luciferase reporter gene assay
T1 sequence (P13053 whole entry): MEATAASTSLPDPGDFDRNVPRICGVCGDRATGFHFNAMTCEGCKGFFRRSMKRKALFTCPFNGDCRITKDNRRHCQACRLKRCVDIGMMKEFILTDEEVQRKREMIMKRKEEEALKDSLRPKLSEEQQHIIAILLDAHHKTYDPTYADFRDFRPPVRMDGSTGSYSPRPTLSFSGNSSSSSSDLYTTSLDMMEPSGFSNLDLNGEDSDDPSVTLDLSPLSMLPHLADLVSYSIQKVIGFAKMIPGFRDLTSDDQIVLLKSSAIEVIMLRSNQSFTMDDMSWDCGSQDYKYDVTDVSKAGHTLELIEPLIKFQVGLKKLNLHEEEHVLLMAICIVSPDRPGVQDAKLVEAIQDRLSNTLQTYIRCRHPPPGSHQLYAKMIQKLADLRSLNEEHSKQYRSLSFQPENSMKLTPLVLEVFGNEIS

Vitamin D3 receptor [4] = target: T1, Vitamin D3 receptor; assay: Displacement of [3H]1-alpha,25-(OH)2D3 from rat recombinant full length VDR
Rattus norvegicus [5] = assay: Effect on calcium transport in vitamin D-deficient Sprague-Dawley rat intestine assessed as ratio of serosal to mucosal calcium level at 7800 pmol, ip administered 4 consecutive daily doses assessed after 24 hrs of last dose by gut sac assay; type: functional
HL-60 = assay: Induction of differentiation of human HL-60 cells promyelocytes to monocytes after 4 days by NBT reduction assay; type: functional, cell-based; settings: HL-60, 96 h
Rattus norvegicus [6] = assay: Effect on calcium transport in vitamin D-deficient Sprague-Dawley rat intestine assessed as ratio of serosal to mucosal calcium level at 320 pmol, ip administered 4 consecutive daily doses assessed after 24 hrs of last dose by gut sac assay; type: functional
Rattus norvegicus [7] = assay: Effect on calcium transport in vitamin D-deficient Sprague-Dawley rat intestine assessed as ratio of serosal to mucosal calcium level at 2340 pmol, ip administered 4 consecutive daily doses assessed after 24 hrs of last dose by gut sac assay; type: functional
Rattus norvegicus [8] = assay: Effect on bone calcium mobilization in vitamin D-deficient Sprague-Dawley rat assessed as serum calcium level at 960 pmol, ip administered 4 consecutive daily doses assessed after 24 hrs of last dose by spectrometry; type: functional
Rattus norvegicus [9] = assay: Effect on calcium transport in vitamin D-deficient Sprague-Dawley rat intestine assessed as ratio of serosal to mucosal calcium level at 260 pmol, ip administered 4 consecutive daily doses assessed after 24 hrs of last dose by gut sac assay; type: functional
Rattus norvegicus [10] = assay: Effect on bone calcium mobilization in vitamin D-deficient Sprague-Dawley rat assessed as serum calcium level at 7800 pmol, ip administered 4 consecutive daily doses assessed after 24 hrs of last dose by spectrometry; type: functional
[11] = target: T2, Vitamin D3 receptor (Rattus norvegicus) (UniProt P13053); assay: Antagonist activity at rat recombinant VDR expressed in rat ROS 17/2.8 cells transfected with 24-hydroxylase gene promoter assessed as 1-alpha,25-(OH)2D3-induced transcriptional activation at 0.001 uM to 0.1 uM after 16 hrs by luciferase reporter gene assay; type: functional, cell-based
T2 sequence (whole entry): T1 sequence (P13053 whole entry)

Rattus norvegicus [12] = assay: Effect on bone calcium mobilization in vitamin D-deficient Sprague-Dawley rat assessed as serum calcium level at 2340 pmol, ip administered 4 consecutive daily doses assessed after 24 hrs of last dose by spectrometry; type: functional
Rattus norvegicus [13] = assay: Effect on bone calcium mobilization in vitamin D-deficient Sprague-Dawley rat assessed as serum calcium level at 260 pmol, ip administered 4 consecutive daily doses assessed after 24 hrs of last dose by spectrometry; type: functional

| SMILES | Ratio (Rattus norvegicus [1]) | Ratio (Rattus norvegicus [2]) | EC50 (Vitamin D3 receptor [3]) [nM] | Ki (Vitamin D3 receptor [4]) [nM] | Ratio (Rattus norvegicus [5]) | EC50 (HL-60) [nM] | Ratio (Rattus norvegicus [6]) | Ratio (Rattus norvegicus [7]) | Ratio (Rattus norvegicus [8]) | Ratio (Rattus norvegicus [9]) | Ratio (Rattus norvegicus [10]) | Activity [11] | Ratio (Rattus norvegicus [12]) | Ratio (Rattus norvegicus [13]) |
| --- | --- | --- | --- | --- | --- | --- | --- | --- | --- | --- | --- | --- | --- | --- |
| C=C1C[C@@H](C[C@@H](C)[C@H]2CC[C@H]3/C(=C/C=C4C[C@@H](O)C(=C)[C@H](O)C4)CCC[C@]23C)OC1=O | 3.7 | 5.9 | 100 | 2 | 11 | 2 | 5.1 | 9.6 | 3.8 | 5.6 | 4 |  |  |  |
| C=C1[C@H](O)CC(=C/C=C2\CCC[C@]3(C)[C@@H]([C@H](C)/C=C/[C@@H](O)C4(C(=O)OCCCC)CC4)CC[C@@H]23)C[C@H]1O |  |  |  |  |  |  |  |  |  |  |  | Active |  |  |
| C=C1C[C@H](C[C@@H](C)[C@H]2CC[C@H]3/C(=C/C=C4C[C@@H](O)C(=C)[C@H](O)C4)CCC[C@]23C)OC1=O |  |  | 2 | 1 |  | 4 |  | 9.5 |  | 7.6 |  |  | 4.2 | 4.4 |
